In assay [1] the test system is interferon regulatory factor (IRF) pathway in THP-1 dual cells. Put plainly: THP-1 Dual reporter assay, IRF pathway (luciferase). The format is cell-based. Conditions: Homo sapiens, THP1-Dual, read-out: THP1 Dual EC50 (μM) IRF. How it is done: (§1) Compounds of the present invention were tested for their activity using THP-1 dual cells (Invivogen, cat no. thpd-nfis) allowing for simultaneous study of NF-κB pathway and the interferon regulatory factor (IRF) pathway. THP-1 dual cells contain luciferase reporter gene under the control of an ISG54 (interferon-stimulated gene) minimal promoter in conjunction with five interferon-stimulated response elements and a secreted embryonic alkaline phosphatase reporter gene under the control an IFN (interferon)-β minimal promoter fused to five copies of the NF-κB consensus transcriptional response element with three copies of the c-Rel binding site. Following 18 h of stimulation with STING agonist, medium was collected and transferred onto fresh cell culture plate. To verify activity of the IRF pathway, luminescence activity was measured with standard laboratory plate reader immediately after addition 10 μl of the medium to 40 or 50 μl of luminescence reagent (Invivogen, cat. No. rep-qlc2). To verify activity of NF-κB pathway, 10 or 20 μl of the medium was mixed with 80 μl of a detection medium (Invivogen, cat. No. rep-qb2) and incubated for 1 or 2 hours at 37° C. in a humidified atmosphere containing 5% CO2. Next, absorbance at 630 or 655 nm was recorded using standard laboratory plate reader.

For assay [2], the system named is NF-κB pathway in THP-1 dual cells. Put plainly: THP-1 Dual reporter assay, NF-κB pathway (SEAP). Type of assay: cell-based. The settings on record: Homo sapiens, THP1-Dual, read-out: THP1 Dual EC50 (μM) NFkB. Here is the method:
as §1
A general note: Reporter assays use an easily measured gene product as a stand-in for the process of interest.

The mark [3] stands for this setting: 18 h stimulation, absorbance at 630 or 655 nm.

13 compounds from patent publication US12643879B2, “Functionalized heterocyclic compounds as modulators of stimulator of interferon genes (STING)” (RYVU THERAPEUTICS S.A., priority 2019, dated 2026) can be followed below.

Structures can show the parent of a compound that is named as a salt. Where two headings read alike, the source gives them in different places.

Take `Cc1cc(CN(Cc2cn(C3CC3)c3cc(N4CC[C@@H](O)C4)c(F)cc3c2=O)[C@H]2CCCN(c3noc(C)n3)C2)ccn1` [Example 48, 1-cyclopropyl-6-fluoro-7-[(3R)-3-hydroxypyrrolidin-1-yl]-3-({[(3S)-1-(5-methyl-1,2,4-oxadiazol-3-yl)piperidin-3-yl][(2-methylpyridin-4-yl)methyl]amino}methyl)-1,4-dihydroquinolin-4-one hydrochloride]: the 50% effective concentration (EC50) is under 1 µM in assay [1] (18 h stimulation, luminescence) and 1 to 10 µM in assay [2] (setting [3]).
Regarding `Cc1ccc(N2CCC[C@H](N(Cc3ccnc(C)c3)Cc3cn(C(C)C)c4cc(N5CC[C@@H](O)C5)ccc4c3=O)C2)cn1` [Example 52, 7-[(3R)-3-hydroxypyrrolidin-1-yl]-3-({[(3S)-1-(6-methylpyridin-3-yl)piperidin-3-yl][(2-methylpyridin-4-yl)methyl]amino}methyl)-1-(propan-2-yl)-1,4-dihydroquinolin-4-one], the EC50 was under 1 µM in assay [1] (18 h stimulation, luminescence) and under 1 µM in assay [2] (setting [3]).
`Cc1ccc(N2CCC[C@H](N(Cc3ccnc(C)c3)Cc3cn(C(C)C)c4cc(N5CCN(CCO)CC5)ccc4c3=O)C2)cn1` [Example 53, 7-[4-(2-Hydroxyethyl)piperazin-1-yl]-3-({[(3S)-1-(6-methylpyridin-3-yl)piperidin-3-yl][(2-methylpyridin-4-yl)methyl]amino}methyl)-1-(propan-2-yl)-1,4-dihydroquinolin-4-one]: the EC50 in assay [1] (18 h stimulation, luminescence) is under 1 µM; in assay [2] (setting [3]), under 1 µM.
Consider `Cc1ccc(N2CCC[C@H](N(Cc3ccnc(C)c3)Cc3cn(C(C)C)c4cc(N5C[C@@H](O)[C@@H](O)C5)ccc4c3=O)C2)cn1` [Example 54, 7-[(3R,4S)-3,4-dihydroxypyrrolidin-1-yl]-3-({[(3S)-1-(6-methylpyridin-3-yl)piperidin-3-yl][(2-methylpyridin-4-yl)methyl]amino}methyl)-1-(propan-2-yl)-1,4-dihydroquinolin-4-one], for which the half-maximal effective concentration (EC50) in assay [1] (18 h stimulation, luminescence) was under 1 µM; in assay [2] (setting [3]) it was 1 to 10 µM.
Turning to `C#CCOCCOCCOCCOCCOCCC(=O)Nc1ccc(COC(=O)N(C)[C@@H]2CCN(c3cc4c(cc3F)c(=O)c(CN(Cc3ccnc(C)c3)[C@H]3CCCN(c5ccc(C)nc5)C3)cn4C3CC3)C2)cc1` [Example 55A], the EC50 is under 1 µM in assay [1] (18 h stimulation, luminescence) and under 1 µM in assay [2] (setting [3]).
As for `Cc1ccc(N2CCC[C@H](N(Cc3ccnc(C)c3)Cc3cn(C4CC4)c4cc(N5CC[C@@H](N(C)CCOCCOCCOCCOCCNC(=O)OC(C)(C)C)C5)c(F)cc4c3=O)C2)cn1` [Example 55B, tert-Butyl N-{2-[(3R)-1-[1-cyclopropyl-6-fluoro-3-({[(3S)-1-(6-methylpyridin-3-yl)piperidin-3-yl][(2-methylpyridin-4-yl)methyl]amino}methyl)-4-oxo-1,4-dihydroquinolin-7-yl]pyrrolidin-3-yl]-5,8,11,14-tetraoxa-2-azahexadecan-16-yl}carbamate], the EC50 in assay [1] (18 h stimulation, luminescence) is under 1 µM; in assay [2] (setting [3]), under 1 µM.
For `Cc1ccc(N2CCC[C@H](N(Cc3ccnc(C)c3)Cc3cn(C4CC4)c4cc(N5CC[C@@H](N(C)C(=O)CCOCCOCCOCCNC(=O)OC(C)(C)C)C5)c(F)cc4c3=O)C2)cn1` [Example 55C, tert-Butyl N-(2-{2-[2-(2-{[(3R)-1-[1-cyclopropyl-6-fluoro-3-({[(3S)-1-(6-methylpyridin-3-yl)piperidin-3-yl][(2-methylpyridin-4-yl)methyl]amino}methyl)-4-oxo-1,4-dihydroquinolin-7-yl]pyrrolidin-3-yl](methyl)carbamoyl}ethoxy)ethoxy]ethoxy}ethyl)carbamate], the EC50 in assay [1] (18 h stimulation, luminescence) is under 1 µM; in assay [2] (setting [3]), under 1 µM.
For the compound `Cc1ccc(N2CCC[C@H](N(Cc3ccnc(C)c3)Cc3cn(C4CC4)c4cc(N5CC[C@@H](N(C)C(=O)CCOCCOCCOCCN)C5)c(F)cc4c3=O)C2)cn1` [Example 55D, 3-{2-[2-(2-aminoethoxy)ethoxy]ethoxy}-N-[(3R)-1-[1-cyclopropyl-6-fluoro-3-({[(3S)-1-(6-methylpyridin-3-yl)piperidin-3-yl][(2-methylpyridin-4-yl)methyl]amino}methyl)-4-oxo-1,4-dihydroquinolin-7-yl]pyrrolidin-3-yl]-N-methylpropanamide formate], the EC50 in assay [1] (18 h stimulation, luminescence) was 1 to 10 µM; in assay [2] (setting [3]) it was 1 to 10 µM.
On to `C#CCOCCOCCOCCOCCOCCC(=O)Nc1ccc(COC(=O)N(C)[C@H]2CCN(c3cc4c(cc3F)c(=O)c(CN(Cc3ccnc(C)c3)[C@H]3CCCN(c5ccc(C)nc5)C3)cn4C3CC3)C2)cc1` [Example 58A, [4-(4,7,10,13,16-pentaoxanonadec-18-ynamido)phenyl]methyl N-[(3S)-1-[1-cyclopropyl-6-fluoro-3-({[(3S)-1-(6-methylpyridin-3-yl)piperidin-3-yl][(2-methylpyridin-4-yl)methyl]amino}methyl)-4-oxo-1,4-dihydroquinolin-7-yl]pyrrolidin-3-yl]-N-methylcarbamate], for which the EC50 was under 1 µM in assay [1] (18 h stimulation, luminescence) and under 1 µM in assay [2] (setting [3]).
Take `Cc1cc(CN(Cc2cn(C(C)C)c3cc(N4CC[C@@H](O)C4)ccc3c2=O)[C@H]2CCCN(c3cncnc3)C2)ccn1` [Example 59, 7-[(3R)-3-Hydroxypyrrolidin-1-yl]-3-({[(2-methylpyridin-4-yl)methyl][(3S)-1-(pyrimidin-5-yl)piperidin-3-yl]amino}methyl)-1-(propan-2-yl)-1,4-dihydroquinolin-4-one]: the EC50 in assay [1] (18 h stimulation, luminescence) is over 10 µM; in assay [2] (setting [3]), over 10 µM.
As to `Cc1ccc(N2CCC[C@H](N(Cc3ccnc(C)c3)Cc3cn(C4CC4)c4cc(-c5cnn(CCO)c5)c(F)cc4c3=O)C2)cn1` [Example 62, 1-Cyclopropyl-6-fluoro-7-[1-(2-hydroxyethyl)-1H-pyrazol 4-yl]-3-({[(3S)-1-(6-methylpyridin-3-yl)piperidin-3-yl][(2-methylpyridin-4-yl)methyl]amino}methyl)-1,4-dihydroquinolin-4-one], the EC50 in assay [1] (18 h stimulation, luminescence) is under 1 µM; in assay [2] (setting [3]) it was under 1 µM.
For the compound `Cc1ccc(N2CCC[C@H](N(Cc3ccnc(C)c3)Cc3cn(C4CC4)c4cc(-n5cnc(C(N)=O)c5)c(F)cc4c3=O)C2)cn1` [Example 64, 1-[1-Cyclopropyl-6-fluoro-3-({[(3S)-1-(6-methylpyridin-3-yl)piperidin-3-yl][(2-methylpyridin-4-yl)methyl]amino}methyl)-4-oxo-1,4-dihydroquinolin-7-yl]-1H-imidazole-4-carboxamide], the EC50 in assay [1] (18 h stimulation, luminescence) is under 1 µM; in assay [2] (setting [3]) it was under 1 µM.
As for `COc1cc(CN(Cc2cn(C3CC3)c3cc(N4CC[C@@H](O)C4)c(F)cc3c2=O)[C@H]2CCCN(c3cccnc3)C2)ccn1` [Example 65, 1-cyclopropyl-6-fluoro-7-[(3R)-3-hydroxypyrrolidin-1-yl]-3-({[(2-methoxypyridin-4-yl)methyl][(3S)-1-(pyridin-3-yl)piperidin-3-yl]amino}methyl)-1,4-dihydroquinolin-4-one hydrochloride], the EC50 in assay [1] (18 h) and in assay [2] (18 h) was under 1 µM throughout.

By EC50 is commonly meant the concentration needed to bring the measured effect to its halfway point.
